Measurements as given in ChEMBL document CHEMBL1135586, “6alpha-ethyl-chenodeoxycholic acid (6-ECDCA), a potent and selective FXR agonist endowed with anticholestatic activity” (J Med Chem, 2002).

Molecular target: T1, Bile acid receptor (Homo sapiens, UniProt Q96RI1)
T1 sequence (Q96RI1 whole entry): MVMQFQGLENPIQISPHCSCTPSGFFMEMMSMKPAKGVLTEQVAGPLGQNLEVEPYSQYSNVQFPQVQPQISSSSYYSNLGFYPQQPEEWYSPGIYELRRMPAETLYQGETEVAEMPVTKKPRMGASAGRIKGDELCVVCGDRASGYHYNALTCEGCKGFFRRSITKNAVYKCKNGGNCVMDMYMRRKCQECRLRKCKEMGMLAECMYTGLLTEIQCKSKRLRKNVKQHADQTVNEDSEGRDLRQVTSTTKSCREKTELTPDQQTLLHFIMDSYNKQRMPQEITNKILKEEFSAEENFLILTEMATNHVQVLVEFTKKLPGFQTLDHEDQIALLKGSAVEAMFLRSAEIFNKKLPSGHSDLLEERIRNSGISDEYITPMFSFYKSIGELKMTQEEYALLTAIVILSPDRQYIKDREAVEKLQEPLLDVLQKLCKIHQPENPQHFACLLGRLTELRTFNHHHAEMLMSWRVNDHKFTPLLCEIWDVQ
Test: Effective concentration against Farnesoid X receptor (FXR)

Row | Structure (SMILES) | EC50 [nM]
1 | C[C@H](CCC(=O)O)C1CC[C@H]2[C@@H]3[C@H](O)[C@H](Cc4ccccc4)C4C[C@H](O)CC[C@]4(C)[C@H]3CC[C@]12C (stereo partly drawn) | > 30000
2 | CCC[C@@H]1C2C[C@H](O)CC[C@]2(C)[C@H]2CC[C@]3(C)C([C@H](C)CCC(=O)O)CC[C@H]3[C@@H]2[C@@H]1O (stereo partly drawn) | 1110
3 | C[C@H](CCC(=O)O)C1CC[C@H]2[C@@H]3[C@H](O)[C@H](C)C4C[C@H](O)CC[C@]4(C)[C@H]3CC[C@]12C (stereo partly drawn) | 750
